# Entries after “also recorded” stand apart in the source; their conditions may differ. Where a name gives a salt, the structure may show the parent alone.
# Tests used:
# NPC1 protein = experiment: Total NPC1 protein by western blot in NPC patient fibroblast cell lines; type: cell-based, human; details: patient fibroblasts with the most common NPC1 mutations; 50-400 μM, five days
# Description: The data are further described in Example 2.
# (§1) Fibroblasts were seeded one day prior to treatment (day −1) with either 400 μM arimoclomol or PBS (control). Cells were treated continuously with arimoclomol from day 0 to day 5, with a media change on day 3, and harvested on day 5. The cells thus experienced 5 days of continued arimoclomol treatment. Cells were subsequently lysed with RIPA buffer containing protease and phosphatase inhibitors. Protein concentration for each sample was quantified with a BCA assay kit.
# [1] = system: HSPA1A, the gene encoding HSP70; experiment: HSPA1A expression in NPC patient fibroblasts treated with arimoclomol; type: cell-based, human; details: NPC patient fibroblasts I1061T/I1061T; various concentrations; days 2 and 5
# Description: The expression level of HSP1A1 is quantified on days 2 and day 5. The data are further described in Example 2.
# as §1
# [2] = evidenced by presence in cerebrospinal fluid of treated ALS patients; cited from earlier work
# [3] = system: NPC1 protein in GM18420 (P1007A/IVS23+4delA); experiment: EndoH-resistant NPC1 by western blot, GM18420 fibroblasts; type: cell-based, human; details: 400 μM, 5 days
# Description: (§2) PNGase cleaves all glycans from the NPC1 protein regardless of maturation status and is included as a control. EndoH sensitive, immature NPC1 is seen in untreated GM18453 extracts. (B) Quantification of the EndoH resistant NPC1, shown as arimoclomol treated relative to untreated cells. Cells were treated for 5 days with 400 μM arimoclomol. Average of three independent experiments, mean±SD. Pairwise t-test (p: *<0.05). The data are further described in Example 2. […]
# (§3) Fibroblasts were seeded one day prior to treatment (day −1) with either 400 μM arimoclomol or PBS (control). […] Protein concentration for each sample was quantified with a BCA assay kit. […]
# (§4) Proteins were resolved by SDS-PAGE and detected with Western blot (NPC1&tubulin).
# (§5) For the quantification of mature and immature forms of NPC1 as shown in FIGS. 5A-B, membranes were imaged and protein bands for the immature (EndoH sensitive) and mature (EndoH resistant) forms of NPC1 (180-250 kDa) and tubulin (50 kDa) were quantified using ImageJ software. […] The fold change of EndoH-resistant NPC1 protein after arimoclomol treatment relative to PBS-treated (untreated) control within each cell line was quantified. […]
# [4] = system: NPC1 protein in GM18453 (I1061T/I1061T); experiment: EndoH-resistant NPC1 by western blot, GM18453 fibroblasts; type: cell-based, human; details: 400 μM, 5 days
# Description: as §2, §3, §4, §5
# [5] = system: patients with Niemann-Pick disease, type C (NPC); experiment: Phase 2/3 NPC trial: safety evaluation
# Description: Study Procedures: the screening visit (visit 1) included a baseline assessment, randomization assignment, and pharmacokinetic (PK) assessment. The first dose of arimoclomol or placebo was given within 1 week of randomization. Safety assessments were performed at visit 2 (7-14 days after start of treatment) and then every 3 months during the blinded period (visits 3-6).
# [6] = system: patients with Niemann-Pick disease, type C (NPC); experiment: 12-month randomized, double-blind, placebo-controlled phase 2/3 trial of arimoclomol in NPC: clinical efficacy endpoints; type: in vivo, human; set-up: key to Change from baseline in 5-domain NPCCSS score, treatment difference / Change in 5-domain NPCCSS score from baseline at 12 months, mean change / Change in 5-domain NPCCSS score, mean change / Change from baseline in 5-domain NPCCSS score, LSMean: 5-domain NPCCSS points (total 0–25, higher = more severe impairment); details: for Change from baseline in 5-domain NPCCSS score, LSMean / Change from baseline in 5-domain NPCCSS score, treatment difference: patients with ER genotype; for Change in 5-domain NPCCSS score, mean change: 12 months
# Description: Patients enrolled in the trial were stratified by use of miglustat at baseline. Patients in both strata were randomized 2:1 to receive arimoclomol or placebo.
# Routine clinical care was maintained throughout the trial (including administration of miglustat). Each participant was randomized to receive arimoclomol or placebo three times daily. Arimoclomol (calculated as free base) was administered orally or by feeding tube at 93-372 mg/day based on the patient's body weight up to the estimated equivalence of 372 mg/day for adults (body weight>55 kg) or of 124 mg three times a day.
# During the 12-month treatment phase, efficacy assessments for the primary endpoint, the 5-domain NPCCSS score, and for the non-disease specific Clinical Global Impression-Improvement scale (CGI-I) scores were performed at baseline and after 3, 6, 9, and 12 months of treatment; all other efficacy and biomarker assessments were performed at baseline and after 6 and 12 months of treatment.
# Primary endpoint: The primary endpoint was change from baseline in NPC severity at 12 months as assessed by the 5-domain NPCCSS score, an abbreviated assessment tool originating from the 17 domain NPCCSS score developed by Yanjanin et al., as described herein. The fully validated 5-domain NPCCSS score comprises the domains determined to be most clinically relevant to patients, caregivers, and clinicians: ambulation, cognition, fine motor skills, speech, and swallowing. The total aggregated 5-domain NPCCSS score ranges from 0 to 25, with a higher score indicating more severe clinical impairment.
# Subgroup analyses of primary endpoint: NPC is a heterogeneous disease, and patients aged 2 to 18 years present with a large spectrum of disease presentations. The group of children<4 years old includes patients with mild manifestations and patients with aggressive, early fatal disease. As this group is particularly heterogeneous, a subgroup of patients ≥4 years of age was predefined with the population of study participants.
# In the EU, miglustat is indicated for the treatment of progressive neurological manifestations in patients with NPC. However, not all patients are candidates for miglustat treatment, and it is recommended that the benefit of treatment should be evaluated on a regular basis (e.g., every six months). An analysis of the subpopulation of patients receiving miglustat was prespecified to elucidate the effect of arimoclomol in patients on background miglustat treatment. Overall, the subgroups of patients ≥4 years of age, and patients on miglustat treatment, were expected to be more homogeneous with respect to baseline demographics and disease characteristics and therefore more suitable for comparison.
# In the first post hoc analysis, subjects with double functional null mutations in NPC1 (NPC1 genotype of Functional Null/Functional Null) were excluded.
# In the second post hoc analysis, only subjects with annual severity increment score (ASIS) 0.5-2.0 were included.
# In an additional post hoc analysis, only subjects with at least one ER type mutation were included.
compound,measurement,setting,value
"[O-][n+]1cccc(/C(Cl)=N/OC[C@H](O)CN2CCCCC2)c1 [Arimoclomol, (+)-(R)-N-[2-hydroxy-3-(1-piperidinyl)-propoxy]-pyridine-1-oxide-3-carboximidoyl chloride citrate]",Amount of total NPC1 protein relative to PBS-treated control,NPC1 protein,increased
same,Expression of HSPA1A relative to PBS-treated control,[1],time- and dose-dependent increase
same,Blood-brain barrier passage,[2],crosses the blood-brain barrier
same,Amount of EndoH-resistant (correctly processed) NPC1 relative to PBS-treated cells,[3],increased
same,Amount of EndoH-resistant (correctly processed) NPC1 relative to PBS-treated cells,[4],increased
same,Amount of EndoH-resistant (correctly processed) NPC1 relative to PBS-treated cells,[4]; listed as arimoclomol,increased; also recorded: clear increase of correctly matured NPC1 protein
same,Tolerability,[5]; 12-month trial,well tolerated
same,Patients with increase in serum creatinine level over 1.5 times their baseline values,[5]; arimoclomol group,Six
same,Patients with serum creatinine levels over twice baseline values,[5]; arimoclomol group,two
same,Patients with TEAEs,"[5]; arimoclomol group, 30/34",88.2%
same,"Changes in vital signs, electrocardiograms, or other laboratory values during the trial",[5]; in vivo,no significant changes
same,TEAEs occurring more frequently with arimoclomol versus placebo,[5]; in vivo,Upper respiratory tract infection and decreased weight
same,Patients with TEAEs that led to trial drug discontinuation,"[5]; three patients, four TEAEs (urticaria, angioedema, increased blood creatinine)",8.8%
same,"SARA score change from baseline to 12 months, LS mean","[6]; human, in vivo",1.06
same,"SARA score change from baseline to 12 months, arimoclomol vs placebo: difference","[6]; human, in vivo",0.28
same,"Change in 5-domain NPCCSS score from baseline at 12 months, mean change","[6]; overall population, arimoclomol 93-372 mg/day (free base) t.i.d.",0.80
same,"Change from baseline in 5-domain NPCCSS score, LSMean",[6]; month 3,−0.29
same,"Change from baseline in 5-domain NPCCSS score, treatment difference",[6]; month 3,−1.60
same,"Change from baseline in 5-domain NPCCSS score, LSMean",[6]; month 6,0.61
same,"Change from baseline in 5-domain NPCCSS score, treatment difference",[6]; month 6,−2.19
same,"Change from baseline in 5-domain NPCCSS score, LSMean",[6]; month 9,0.86
same,"Change from baseline in 5-domain NPCCSS score, treatment difference",[6]; month 9,−3.44
same,"Change from baseline in 5-domain NPCCSS score, LSMean",[6]; month 12,0.52
same,"Change from baseline in 5-domain NPCCSS score, treatment difference",[6]; month 12,−4.79
same,"Change in 5-domain NPCCSS score, mean change",[6]; post hoc: ASIS within 0.5 and 2,0.19
same,"Change in 5-domain NPCCSS score, mean change",[6]; post hoc: excluding individuals with double functional null mutations,0.47

# From patent publication US20240115558A1
